Test results published in patent US7534871B2, “Preparation and use of carbohydrate-based bicyclic ring structures with antimicrobial and cytostatic activity” (Kemin Pharma B.V.B.A., priority 2004, dated 2009).
Converted amounts (≈) assume the structure as drawn.

Key:
[1] = system: human T-lymphocyte cells (CEM/0); assay: Cytostatic activity: inhibition of proliferation of CEM/0 cells; format: cell-based; conditions: CCRF-CEM, 50% inhibitory concentration, cell proliferation, read-out: IC50 CEM/0
Description: (§1) The compounds were tested for anti-tumor activity via the inhibitory effects on the proliferation of murine leukemia cells (L1210/0), murine mammary carcinoma cells (FM3A), human T-lymphocyte cells (Molt4/C8, CEM/0) and human cervix carcinoma cells (HeLa).

HSV-2 (G) = assay: Anti-viral activity: HSV-2-induced cytopathicity in human embryo fibroblast E6SM cell cultures; format: cell-based, herpes simplex virus (HSV); conditions: Human alphaherpesvirus 2, 50%
HSV-1 (KOS) = assay: Anti-viral activity: HSV-1-induced cytopathicity in human embryo fibroblast E6SM cell cultures; format: cell-based, herpes simplex virus (HSV); conditions: Human alphaherpesvirus 1, 50%
HEL cells = assay: Cytotoxicity: alteration of cell morphology (MCC); format: cell-based, human; conditions: minimum cytotoxic concentration that causes a microscopically detectable alteration of cell morphology
[2] = system: human T-lymphocyte cells (Molt4/C8); assay: Cytostatic activity: inhibition of proliferation of Molt4/C8 cells; format: cell-based; conditions: Molt4/C8, 50% inhibitory concentration, cell proliferation, read-out: IC50 Molt4/C8
Description: as §1

[3] = system: murine mammary carcinoma cells (FM3A); assay: Cytostatic activity: inhibition of proliferation of FM3A cells; format: cell-based; conditions: Mus musculus, 50% inhibitory concentration, cell proliferation, read-out: IC50 FM3A/0
Description: as §1

CMV AD-169 strain = assay: Anti-CMV activity: plaque reduction in HEL cells, AD-169 strain; format: cell-based, human cytomegalovirus (CMV); conditions: Human betaherpesvirus 5, AD169, HEL; Table 6; reduce virus plaque formation by 50%; virus input 100 PFU; read-out: Anti-CMV activity IC50 AD-169 strain
VZV YS = assay: Anti-viral activity: VZV-induced plaque formation in HEL cell cultures, YS strain; format: cell-based, varicella zoster virus (VZV); conditions: Human alphaherpesvirus 3, VZV-induced plaque formation in human embryonic lung HEL cell cultures, 50%
CMV Davis strain = assay: Anti-CMV activity: plaque reduction in HEL cells, Davis strain; format: cell-based, human cytomegalovirus (CMV); conditions: Human betaherpesvirus 5, HEL; Table 6; reduce virus plaque formation by 50%; virus input 100 PFU; read-out: Anti-CMV activity IC50 Davis strain
[4] = system: murine leukemia cells (L1210/0); assay: Cytostatic activity: inhibition of proliferation of L1210/0 cells; format: cell-based; conditions: Mus musculus, L1210/0; 50% inhibitory concentration, cell proliferation; read-out: IC50 L1210/0
Description: as §1

[5] = Cytotoxicity: inhibition of HEL cell growth (CC50); format: cell-based; conditions: human; concentration required to reduce cell growth by 50%; HEL cells, three days
Description: The medium was then replaced by MEM containing various concentrations of the test compound. After three days incubation at 37° C., when the cell monolayer was 70% confluent, the cell number was determined with the Coulter counter. The minimum cytotoxic concentration was defined as the concentration required to reduce cell growth by 50%.

VV = assay: microbe, parasite or virus in culture; format: cell-based; conditions: Orthopoxvirus vaccinia, E6SM, read-out: EC50 VV (E6SM)
VZV OKA = assay: microbe, parasite or virus in culture; format: cell-based, varicella zoster virus (VZV); conditions: Human alphaherpesvirus 3, HEL, read-out: EC50 VZV (HEL) OKA
[6] = system: human cervix carcinoma cells (HeLa); assay: Cytostatic activity: inhibition of proliferation of HeLa cells; format: cell-based; conditions: 50% inhibitory concentration, cell proliferation
Description: as §1

CO[C@@H]1[C@@H](OC)[C@H](Sc2ccccc2)O[C@@H]2CO[C@@H](c3ccccc3)O[C@@H]12 [KPE00001045]
IC50 [1]: > 200 µg/mL | EC50 (HSV-2 (G)): > 3.2 µg/mL | EC50 (HSV-1 (KOS)): > 3.2 µg/mL | Cytotoxicity Cell morphology (MCC) (HEL cells): 20 μg/ml | IC50 [2]: > 200 µg/mL | IC50 [3]: > 200 µg/mL | IC50 (CMV AD-169 strain): > 5 µg/mL | EC50 (VZV YS): > 2 µg/mL | IC50 (CMV Davis strain): > 5 µg/mL | IC50 [4]: > 200 µg/mL | CC50 at 3 days [5]: 50 µg/mL (≈ 129 µM) | EC50 (VV): > 3.2 µg/mL | EC50 (VZV OKA): > 2 µg/mL

O[C@@H]1[C@@H](O)[C@H](Sc2ccccc2)O[C@@H]2CO[C@@H](c3ccccc3)O[C@@H]12 [KPE00001048]
IC50 [1]: 75 ± 31 µg/mL (≈ 208 µM) | EC50 (HSV-2 (G)): > 80 µg/mL | EC50 (HSV-1 (KOS)): > 80 µg/mL | Cytotoxicity Cell morphology (MCC) (HEL cells): >50 μg/ml | IC50 [2]: 78 ± 12 µg/mL (≈ 216 µM) | IC50 [3]: 171 ± 41 µg/mL (≈ 474 µM) | IC50 (CMV AD-169 strain): 33 µg/mL (≈ 91.6 µM) | EC50 (VZV YS): > 50 µg/mL | IC50 (CMV Davis strain): 35 µg/mL (≈ 97.1 µM) | IC50 [4]: 103 ± 10 µg/mL (≈ 286 µM) | CC50 at 3 days [5]: > 50 µg/mL | EC50 (VV): > 80 µg/mL | EC50 (VZV OKA): > 50 µg/mL

CCO[C@@H]1[C@@H](OCC)[C@H](Sc2ccccc2)O[C@@H]2CO[C@@H](c3ccccc3)O[C@@H]12 [KPE00001050]
IC50 [6]: > 200 µg/mL | IC50 [1]: > 200 µg/mL | EC50 (HSV-2 (G)): > 3.2 µg/mL | EC50 (HSV-1 (KOS)): > 3.2 µg/mL | Cytotoxicity Cell morphology (MCC) (HEL cells): >50 μg/ml | IC50 [2]: > 200 µg/mL | IC50 [3]: > 200 µg/mL | IC50 (CMV AD-169 strain): > 50 µg/mL | EC50 (VZV YS): > 5 µg/mL | IC50 (CMV Davis strain): > 50 µg/mL | IC50 [4]: > 200 µg/mL | CC50 at 3 days [5]: > 50 µg/mL | EC50 (VV): > 3.2 µg/mL | EC50 (VZV OKA): > 5 µg/mL
